Source: patent publication EP0935963A2, “The use of MMP-13 selective inhibitors for the treatment of osteoarthritis and other matrix metalloproteinase-mediated disorders” (Pfizer Products Inc., priority 1997, dated 1999)
Read-outs that look alike come from different tables or passages of the source.

How the values were obtained:
[1] = molecular target: T1, MMP-13 (Homo sapiens, UniProt P45452); test: Inhibition of MMP-13, fluorescence assay; type: biochemical
Description: Human recombinant MMP-13 is activated with 2 mM APMA (p-aminophenyl mercuric acetate) for 1.5 hours, at 37°C and is then diluted to […] in assay buffer (50 mM Tris, pH 7.5, 200 mM sodium chloride, 5mM calcium chloride, 20µM zinc chloride, 0.02% Brij 35). Twenty-five microliters of diluted enzyme is added per well of a 96 well microfluor plate. The enzyme is then diluted in a 1:4 ratio in the assay by the addition of inhibitor and substrate to give a final concentration in the assay of 60 ng/ml.
Stock solutions (10 mM) of inhibitors are made up in dimethylsulfoxide and then diluted in assay buffer as per the inhibitor dilution scheme for inhibition of human collagenase-1. Twenty-five microliters of each concentration is added to triplicate wells of a microfluor plate. The final concentrations in the assay are 30 µM, 3 µM, 0.3 µM, and 0.03 µM.
Substrate (Dnp-Pro-Cha-Gly-Cys(Me)-His-Ala-Lys(NMA)-NH2) is prepared as for inhibition of human collagenase (MMP-1) and […] is added to each well to give a final assay concentration of 10 µM. Fluorescence readings (360 nm excitation; 450 nm emission) are taken at time 0 and every 5 minutes for 1 hour.
Positive controls and negative controls are set up in triplicate as outlined in the MMP-1 assay.
IC50's are determined as per inhibition of human collagenase (MMP-1). If IC50's are reported to be less than […], inhibitors are then assayed at final concentrations of 0.3 µM, 0.03 µM, 0.003 µM and 0.0003 µM.

[2] = molecular target: T2, Human recombinant collagenase-1 (Homo sapiens, UniProt P03956); test: Inhibition of Human Collagenase (MMP-1), fluorescence assay; type: biochemical
T2 sequence (P03956 100-469): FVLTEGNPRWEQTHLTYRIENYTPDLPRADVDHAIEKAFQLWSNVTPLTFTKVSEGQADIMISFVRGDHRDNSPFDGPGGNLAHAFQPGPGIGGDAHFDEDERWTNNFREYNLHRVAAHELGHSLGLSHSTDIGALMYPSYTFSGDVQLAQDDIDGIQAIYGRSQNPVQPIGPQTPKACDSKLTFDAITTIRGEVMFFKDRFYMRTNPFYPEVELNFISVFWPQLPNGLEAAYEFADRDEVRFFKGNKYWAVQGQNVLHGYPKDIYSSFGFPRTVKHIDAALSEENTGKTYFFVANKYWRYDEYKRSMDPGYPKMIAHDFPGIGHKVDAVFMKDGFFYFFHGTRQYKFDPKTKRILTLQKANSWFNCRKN
Description: Human recombinant collagenase-1 is activated with trypsin.
The final concentration of inhibitor will be a 1:4 dilution after addition of enzyme and substrate.
Final concentration of collagenase in the assay is 60 ng/ml.
Fluorescence versus time is then plotted for both the blank and collagenase containing samples (data from triplicate determinations is averaged). […] The zero time is used as a blank for each compound at each concentration and these values are subtracted from the 120 minute data.

[3] = molecular target: T1, MMP-13; test: biochemical
Description: (§1) Rat type I collagen is radiolabeled with ^14C acetic anhydride (T.E. Cawston and A.J. Barrett, Anal. Biochem., 99, 340-345 (1979)) and used to prepare 96 well plates containing radiolabeled collagen films (Barbara Johnson-Wint, Anal. Biochem., 104, 175-181 (1980)). When a solution containing collagenase is added to the well, the enzyme cleaves the insoluble collagen which unwinds and is thus solubilized. […] Collagenase inhibitors are, therefore, compounds which reduce the radioactive counts released with respect to the controls with no inhibitor present. One specific embodiment of this assay is described in detail below.
(§2) For determining the selectivity of compounds for MMP-13 versus MMP-1 using collagen as a substrate, the following procedure is used. Recombinant human proMMP-13 or proMMP-1 is activated according to the procedures outlined in Experiment 1. The activated MMP-13 or MMP-1 is diluted to 0.6 ug/ml with buffer ( 50 mM Tris pH 7.5, 150 mM NaCI, 10 mM CaCl2, 1 uM ZnCl2, 0.05% Brij-35, 0.02% sodium azide).
(§3) Stock solutions of test compound (10mM) in dimethylsulfoxide are prepared. Dilutions of the test compounds in the Tris buffer, above, are made to 0.2, 2.0, 20, 200, 2000 and 20000 nM.
(§4) 100 µl of appropriate drug dilution and 100 µl of diluted enzyme are pipetted into wells of a 96 well plate containing collagen films labeled with ^14C-collagen. The final enzyme concentration is 0.3 µg/ml while the final drug concentration is 0.1, 1.0, 10, 100, 1000 nM. Each drug concentration and control is analyzed in triplicate. Triplicate controls are also run for the conditions in which no enzyme is present and for enzyme in the absence of any compound.
(§5) The plates are incubated at 37°C for a time period such that around 30 - 50% of the available collagen is solubilized - determined by counting additional control wells at various time points. In most cases around 9 hours of incubation are required. When the assay has progressed sufficiently, the supernatant from each well is removed and counted in a scintillation counter. The background counts (determined by the counts in the wells with no enzyme) are subtracted from each sample and the % release calculated in relation to the wells with enzyme only and no inhibitor. The triplicate values for each point are averaged and the data graphed as percent release versus drug concentration. IC50's are determined from the point at which 50% inhibition of release of radiolabeled collagen is obtained.

[4] = molecular target: T3, MMP-1 (Homo sapiens, UniProt P03956); test: biochemical
T3 sequence (P03956 100-469): T2 sequence (P03956 100-469)
Description: as §1, §2, §3, §4, §5

[5] = tested on: bovine nasal cartilage explants; test: IL-1 Induced Cartilage Collagen Degradation From Bovine Nasal Cartilage (cartilage explant assay); type: cell-based; details: Bos taurus
Text: This assay uses bovine nasal cartilage explants which are commonly used to test the efficacy of various compounds to inhibit either IL-1 induced proteoglycan degradation or IL-1 induced collagen degradation. Bovine nasal cartilage is a tissue that is very similar to articular cartilage, i.e. chondrocytes surrounded by a matrix that is primarily type II collagen and aggrecan. The tissue is used because it: (1) is very similar to articular cartilage, (2) is readily available, (3) is relatively homogeneous, and (4) degrades with predictable kinetics after IL-1 stimulation.
Two variations of this assay have been used to assay compounds. Both variations give similar data. The two variations are described below:
Three plugs of bovine nasal cartilage (approximately 2 mm diameter x 1.5 mm long) are placed into each well of a 24 well tissue culture plate. One ml of serumless medium is then added to each well. Compounds are prepared as 10 mM stock solutions in DMSO and then diluted appropriately in serumless medium to final concentrations, e.g., 50, 500 and 5000 nM. Each concentration is assayed in triplicate.
Human recombinant IL-1α (5ng/mL) (IL-1) is added to triplicate control wells and to each well containing drug. Triplicate control wells are also set up in which neither drug nor IL-1 are added. The medium is removed and fresh medium containing IL-1 and the appropriate drug concentrations is added on days 6, 12, 18 and 24 or every 3 - 4 days if necessary. The media removed at each time point is stored at -20°C for later analysis. When the cartilage in the IL-1 alone wells has almost completely resorbed (about day 21), the experiment is terminated. The medium, is removed and stored. Aliquots (100 ul) from each well at each time point are pooled, digested with papain and then analyzed for hydroxyproline content. Background hydroxyproline (average of wells with no IL-1 and no drug) is subtracted from each data point and the average calculated for each triplicate. The data is then expressed as a percent of the IL-1 alone average value and plotted. The IC50 is determined from this plot.
The experimental set-up is the same as outlined above in Variation 1, until day 12. On day 12, the conditioned medium from each well is removed and frozen. Then one ml of phosphate buffered saline (PBS) containing 0.5 µg/ml trypsin is added to each well and incubation continued for a further 48 hours at 37°C. After 48 hours incubation in trypsin, the PBS solution is removed. Aliquots (50 µl) of the PBS/trypsin solution and the previous two time points (days 6 and 12) are pooled. hydrolyzed and hydroxyproline content determined. Background hydroxyproline (average of wells with no IL-1 and no drug) is subtracted from each data point and the average calculated for each triplicate. The data is then expressed as a percent of the IL-1 alone average value and plotted. The IC50 is determined from this plot. In this variation, the time course of the experiment is shortened considerably. The addition of trypsin for 48 hours after 12 days of IL-1 stimulation likely releases any type II collagen that has been damaged by collagenase activity but not yet released from the cartilage matrix. In the absence of IL-1 stimulation, trypsin treatment produces only low background levels of collagen degradation in the cartilage explants.

[6] = tested on: cartilage conditioned medium collagenase activity; test: Collagen film assay with cartilage conditioned medium as enzyme source; type: biochemical
Description: Rat type I collagen is radiolabeled with ^14C acetic anhydride (T.E. Cawston and A.J. Barrett, Anal. Biochem., 99, 340-345 (1979)) and used to prepare 96 well plates containing radiolabeled collagen films (Barbara Johnson-Wint, Anal. Biochem., 104, 175-181 (1980)). When a solution containing collagenase is added to the well, the enzyme cleaves the insoluble collagen which unwinds and is thus solubilized. Collagenase activity is directly proportional to the amount of collagen solubilized, determined by the proportion of radioactivity released into the supernatant as measured in a standard scintillation counter. Collagenase inhibitors are, therefore, compounds which reduce the radioactive counts released with respect to the controls with no inhibitor present. One specific embodiment of this assay is described in detail below.
as §3, §4, §5
To determine the identity of the active collagenases in cartilage conditioned medium, assays were carried out using collagen as a substrate, cartilage conditioned medium containing collagenase activity and inhibtors of varying selectivity. The cartilage conditioned medium was collected during the time at which collagen degradation was occurring and thus is representative of the collagenases responsible for the collagen breakdown. Assays were carried out as outlined above except that instead of using recombinant MMP-13 or recombinant MMP-1, cartilage conditioned medium was the enzyme source. […]

[7] = clinical trial data, Proceedings of ASCO, 15, 490 (1996); cited from earlier work
[8] = Variation 2: 12 days IL-1, then trypsin 48 hours, hydroxyproline content, read-out: Cartilage Explant Assay IC50 Variation 2
[9] = Table 2, collagen film substrate
[10] = Table 3 (repeated for comparison)
[11] = 504 h, Variation 1: IL-1 stimulation until about day 21, hydroxyproline content, read-out: Cartilage Explant Assay IC50 Variation 1
[12] = read-out: Average IC50 (variation 1 and 2), average of variation 1 and 2

Structure (SMILES)	IC50 [1]	IC50 [2]	IC50 [3]	IC50 [4]	IC50 [5, 8]	inhibition of the cartilage conditioned medium collagenase activity (in words) [6]	IC50 [6, 9]	IC50 [6, 10]	IC50 [5, 11]	IC50 [5, 12]	connective tissue side effects [7]	IC50 ([1]; fluorescent peptide substrate, read-out: MMP-13 Fluor. IC50)	IC50 ([2]; fluorescent peptide substrate, read-out: MMP-1 Fluor. IC50)	IC50 ([3]; Table 2, type I collagen film substrate, read-out: MMP-13 Type 1 Collagen IC50)	IC50 ([4]; Table 2, type I collagen film substrate, read-out: MMP-1 Type I Collagen IC50)
CNC(=O)C(Cc1ccc(OC)cc1)NC(=O)C(CCCCOc1ccccc1)CP(=O)(O)Cc1ccc(Cc2ccccc2)cc1 (stereo not drawn) [Example 3]	70 nM	21700 nM	40 nM	40000 nM	830 nM	potent inhibitors	400 nM	400 nM	–	–	–	–	–	–	–
CNC(=O)[C@H](Cc1ccc(OC)cc1)NC(=O)C(CC(=O)NO)CC(C)C (stereo partly drawn) [Example 1, reference compound]	1.5 nM	–	1.5 nM	–	50 nM	potent inhibitor	10 nM	10 nM	60 nM	90 nM	–	–	–	–	–
CNC(=O)[C@@H](NC(=O)[C@H](CC(C)C)[C@H](O)C(=O)NO)C(C)(C)C [marimastat]	–	–	–	–	–	–	–	–	–	–	significant dose-related connective tissue side effects	–	–	–	–
O=C(CN(Cc1cccnc1)S(=O)(=O)c1ccc(OCc2ccccc2)cc1)NO [Example 2]	–	–	–	–	550 nM	potent inhibitors	220 nM	220 nM	900 nM	725 nM	–	5.4 nM	17700 nM	52 nM	22000 nM
